Values after ≈ are worked out from the molar mass of the structure shown. Where two headings read alike, the source gives them in different places. A value given as a limit tells only on which side of the number the result lay.

The values below come from paper PMC7332481, “Ecotoxicity screening evaluation of selected pharmaceuticals and their transformation products towards various organisms” (Environmental Science and Pollution Research International, 2020).

Data set [1] deals with Lemna minor. The experiment in a line: L. minor growth inhibition test. The following applies: Lemna minor; for EC50: 168 h, read-out: EC50 L. minor (with confidence interval 2.5–97.5%), growth rate inhibition by frond area, 7 days. As to the method: (§1) All tests were carried out in accordance with the OECD or ISO guidelines. In general the experimental part was divided into three main steps: (i) determination of the toxicity of the native forms of pharmaceuticals (their racemic mixtures), (ii) toxicity evaluation of the selected TPs of these pharmaceuticals, and (iii) preliminary toxicity assessment of the enantiomers of selected pharmaceuticals. For each assay, range-finding tests were conducted, in order to determine the range of concentrations for the definitive tests. The main tests were repeated three times in at least two parallel replicates, with a minimum of five concentrations for native forms of the selected pharmaceuticals (including their enantiomers). The exact number of replicates and concentrations tested was included in the description of each test. […] However, TPs were tested in a different manner; first, the tests were carried out at the limit concentration of 100 mg L^−1. […] Such approach was applied in order to observe the relative toxicity of the selected TP and its native form.
(§2) Dose-response curves were fitted using a linear logistic or logistic model (the model giving the best fit was chosen) (https://cran.r-project.org/web/packages/drfit/drfit.pdf). The mathematic formulas applied for this purpose are presented and described in the Supplementary Material. The EC50 values were given since log EC50 is a model parameter in the logistic as well as in linear logistic model.
One week before the assay, the inoculum cultures were prepared; eight healthy plants were placed into a new portion of the medium. Two days before the test, the plants were transferred to a fresh medium, in order to supplement nutrients and to eliminate plant metabolites. The experiments were performed in six-well plates under the conditions described above. The pH value of the Steinberg medium and all solutions was 5.5 (± 0.5). Every test included six different concentrations of compound and six controls in three replicates. The test started with one plant consisting of three fronds and the measured endpoint was the inhibition of growth rate determined by comparing the frond area (mm^2) for the treated plants and untreated controls.

Data set [2] deals with Vibrio fischeri. Nature of the data set: microbe, parasite or virus in culture. The class given is cell-based. As to conditions: Aliivibrio fischeri; for EC50: 0.5 h, read-out: EC50 V. fischeri (with confidence interval 2.5–97.5%). As to the method:
(§3) Stock solutions and dilutions were prepared in 2% NaCl in 0.02 M phosphate buffer, pH 7. The freeze-dried bacteria were rehydrated prior to testing in a reactivation solution. Culture suspensions and diluted samples were pre-incubated at 15 °C for 15 min. After the initial luminescence was measured, 0.5 mL of the culture suspension was mixed with the same volume of a diluted sample. The final bioluminescence was measured after 30 min. Incubation was kept at 15 °C (LUMIStox 300 meter, Dr. Lange GmbH, Berlin, Germany). The relative toxicity of the samples was expressed as a percentage of luminescence inhibition compared to the controls.
as §3, with “m,” for “meter,”

For data set [3], the system named is aquatic organisms.
The test system of data set [4] is Arthrobacter globiformis. The experiment in a line: A. globiformis dehydrogenase inhibition test (version without soil). The following applies: for EC50: read-out: EC50 A. globiformis. The protocol:
as §1
The test strain was obtained from the German Collection of Microorganisms (DSMZ). A version of the test without soil was performed. Bacteria was grown in a sterile medium containing 10 g L^−1 peptone from casein, 5 g L^−1 yeast extract, 5 g L^−1 glucose, and 5 g L^−1 NaCl. For the test, the medium was diluted in a ratio of 1:3 in water. The inoculum was the bacteria in a log-growth phase. Cell density was adjusted to 1 × 10^8 cells mL^−1, which corresponds to an optical density (OD600nm) of 0.4. The test was performed in 24-well microplates. Each well contained 1 mL of solution of the tested compound in water and 1 mL of bacterial inoculum. Next, the plates were incubated for 2 h at 30 °C on a horizontal shaker with a speed of 100 rpm. To each well, a portion of 0.6 mL of the redox active dye resazurine (45 mg L^−1) dissolved in buffer was added. The microplates were further incubated for 1 h (30 °C, 100 rpm). To stop the reduction process, the plates were centrifuged at 3600g for 10 min. Aliquots (300 μl) of supernatant from each well were immediately transferred to the wells of a 96-well microplate in triplicates. Finally, the dehydrogenase activity was determined by measuring the formation of resorufin from resazurine using a fluorimeter ([…]). Dehydrogenase inhibition was calculated using Eq. 1.
where FBTS is the measured fluorescence of the blank (medium) with the tested substance, FTS is the measured fluorescence of the sample, FBNC is the measured fluorescence of the blank, and FNC is the measured fluorescence of the negative control (with bacteria).

Data set [5] deals with L. minor. As to conditions: cited from earlier work.
Data set [6] has as its system Daphnia magna. The experiment in a line: D. magna acute immobilization test. In kind it is in vivo. The following applies: Daphnia magna; for EC50: immobilization, 48 h, read-out: EC50 D. magna (with confidence interval 2.5–97.5%). As to the method: as §1, §2
Five pre-fed test organisms were incubated with the studied compounds diluted in 10 mL of test media in glass test vessels at 20 °C (± 1 °C) in darkness for 48 h. Each test consisted of a control and five different concentrations of the studied compound in four parallel replicates. In order to achieve a full dose-response relationship, the concentration series covered the range of 0–100% immobilization. The number of immobilized or dead organisms was checked after 24 and 48 h. The negative effect of exposure to the tested compounds was expressed by the number of immobilized organisms compared to the controls.

The test system of data set [7] is Raphidocelis subcapitata. The experiment in a line: R. subcapitata reproduction (growth) inhibition test. The class given is cell-based. The following applies: Raphidocelis subcapitata; for EC50: 72 h, growth inhibition by cell counts, read-out: EC50 R. subcapitata (with confidence interval 2.5–97.5%). As to the method:
as §1, §2
Test organisms were provided from Algal Culture Collection (Universität Göttingen, Germany). […] The light-dark cycle was different from the OECD guidelines, and it was introduced to imitate natural growth conditions. In order to ensure that the algae are in the exponential growth phase when used to inoculate the test solutions, the stock culture was diluted three times a week. The test was carried out in 25 mL suspension cell culture flasks (Nunc) (working volume 10 mL). All operations were performed under sterile conditions. The initial cell concentration was 5 × 10^4 cells mL^−1. Eight different concentrations of every compound in three replicates and a minimum of six controls were used in each test. […] The test flasks were incubated on a shaker with a speed of approx. 75 rpm at the temperature and light conditions described above. Growth inhibition was calculated using the cell counts of the treated samples in relation to the untreated controls after 72 h of exposure. The cells were counted with the use of CASY TT Cell counter & analyzer.

For data set [8], the system named is algae. The following applies: cited from earlier work.
For data set [9], the system named is duckweed. The following applies: ref Cleuvers 2003; cited from earlier work.
In data set [10] the test system is V. fischeri. As to conditions: cited from earlier work.
Setting [11] is: read-out: Growth inhibition of L. minor.
Where [12] appears, read: luminescence inhibition, 30 min, 15 °C.
[13] abbreviates: for the organisms named in the sentence.
Where [14] appears, read: ref US Food and Drug Administration 1996.

Turning to `O=C(O)Cc1ccccc1Nc1c(Cl)cccc1Cl` [DIC, Diclofenac], the EC50 is 16.5 µg/mL (≈ 55.8 µM) in data set [1], 11.6 µg/mL (≈ 39.2 µM) in data set [2], over 100 µg/mL in [4] and 59.1 µg/mL (≈ 200 µM) in data set [6]. Further, in data set [1] (setting [11]), the inhibition at 15 µg/mL turned out to be 33%. Also, the inhibition at 10 µg/mL in data set [2] (read-out: Luminescence inhibition) is 45%. The “classification on the basis of EC50 values (EC 93/67/EEC)” value (“classification on the basis” below) in data set [3] is on record as “harmful”. The inhibition at 100 µg/mL in data set [4] (read-out: inhibition of bacterial growth (A. globiformis)) was determined as 30%. Besides, in data set [5] (ref Quinn et al. (2011)), the “EC50 L. minor” value is 47.6 µg/mL (≈ 161 µM). The same compound gave a mortality at 60 µg/mL in data set [6] (concentration 60 mg L^−1) of 50%.
For `COCCc1ccc(OCC(O)CNC(C)C)cc1` (stereo not drawn) [MET, Metoprolol], the 50% effective concentration (EC50) in data set [1] is over 100 µg/mL; in [2] (setting [12]), over 100 µg/mL; in data set [7] it was 35.6 µg/mL (≈ 133 µM); in data set [4] it was over 100 µg/mL; in data set [6], over 100 µg/mL. Moreover, the inhibition at 100 µg/mL in [1] (setting [11]) turned out to be 5%; in data set [2] (concentration 100 mg L^−1, read-out: Luminescence inhibition) it was 3%; in [7] (concentration 100 mg L^−1, read-out: Growth inhibition of R. subcapitata), 90%. Moreover, the mortality at 100 µg/mL in [6] (concentration 100 mg L^−1) stood at 4%.
Take `COc1ccc2cc([C@H](C)C(=O)O)ccc2c1` [NAP, Naproxen]: the EC50 was 20.7 µg/mL (≈ 89.9 µM) in [1]; 25.2 µg/mL (≈ 109 µM) in [2] (setting [12]); 27.1 µg/mL (≈ 118 µM) in data set [7]; over 100 µg/mL in [4]; 74.4 µg/mL (≈ 323 µM) in [6]. For the same compound, the inhibition at 25 µg/mL in data set [2] (concentration 25 mg L^−1, read-out: Luminescence inhibition) worked out at 51%. Further, the “classification on the basis” value in data set [3] (setting [13]) is on record as “harmful”. The “EC50, 72h algae” value in [8] (72 h, ref Minguez et al. 2016) is 44.40 µg/mL (≈ 193 µM). The “EC50, 96h algae” value in [8] (96 h, ref Isidori et al. 2005b) was 31.82 µg/mL (≈ 138 µM). In data set [9], the EC50 duckweed is 24 µg/mL (≈ 104 µM). Also, the mortality at 70 µg/mL in data set [6] (concentration 70 mg L^−1, read-out: Immobilization) turned out to be 32%.
For the compound `Cc1cc(NS(=O)(=O)c2ccc(N)cc2)no1` [SMZ, Sulfamethoxazole], the inhibition at 3 µg/mL in data set [1] (setting [11]) is 49%. For the same compound, the values for the EC50 in data set [2] (setting [12]), in data set [4] and in data set [6] were 51.8 µg/mL (≈ 204 µM), over 100 µg/mL and 42.7 µg/mL (≈ 169 µM), respectively. The inhibition at 50 µg/mL in data set [2] (concentration 50 mg L^−1, read-out: Luminescence inhibition) is 46%. In addition, the inhibition at 5 µg/mL in [7] (concentration 5 mg L^−1, read-out: Growth inhibition of R. subcapitata) was found to be 43%. In addition, in [3] (setting [13]), the “classification on the basis” value is listed as “toxic to aquatic organisms (1–10 mg L^−1 are “toxic to aquatic organisms”)”. Also, the mortality at 40 µg/mL in [6] (concentration 40 mg L^−1, read-out: Immobilization) stood at 48%.
As for `COc1cccc(C2(O)CCCCC2CN(C)C)c1` (stereo not drawn) [TRA, Tramadol], the “toxic effect towards V. fischeri” value in [10] (at the concentration of 100 mg L^−1, ref Romanucci et al. (2019)) is “did not observed any toxic effect”. In addition, the “toxicity to V. fischeri” value in [10] (setting [14]) is “not toxic”. For the same compound, the “toxicity to L. minor” value in data set [5] (setting [14]) is “not toxic”. Besides, the mortality at 70 µg/mL in [6] (read-out: Immobilization) came out at 44%.
